Experiments:
HBV = test: Anti-HBV activity: intracellular HBV DNA by quantitative PCR in HepG2.2.15 cells; assay type: cell-based, hepatitis B virus; details: for EC50: Hepatitis B virus, 168 h, HepG2.2.15 cells, intracellular HBV DNA, day 7 after addition, read-out: EC50 (50% effective concentration), anti-HBV activity
Method: Anti-HBV activity was evaluated by quantitative PCR for determining the amount of HBV DNA in cells on the seventh day after the addition of the agent, using the HepG2.2.15 cell line of HBV-producing cells obtained by introducing a gene having a length twice that of the HBV genome into the human liver cancer cell line HepG2. For PCR of HBV DNA, a forward primer (HBV-S190F; 5′-GCT CGT GTT ACA GGC GGG-3′: SEQ ID NO: 1) and a reverse primer (HBV-S703R; 5′-GAACCACTGAACAAATGGCACTAGTA-3′: SEQ ID NO: 2) were used. PCR was performed by carrying out a reaction at 95° C. for 10 sec, 62° C. for 10 sec, and 72° C. for 30 sec for 35 cycles.
Specifically, HepG2.2.15 cells were seeded at a concentration of 1×10^5 cells/well. 24 hours later, the compounds of Example 1 and Comparative Example 1 were diluted to have a concentration of 0, 0.49, 0.97, 1.95, 3.90, 7.81, 15.6, 31.3, 62.5, 125, 250, 500, and 1000 nM; and added to the cells. After the cells were cultured for 7 days, each cytoplasmic compartment was collected, and DNA was purified by phenol-chloroform extraction. 20 ng of the purified DNA was used to measure the amount of intracellular HBV DNA by quantitative PCR.
The EC50 (50% effective concentration) was calculated from a graph showing the relationship between the concentration of the compound and anti-HBV activity.

HBs antigen = HBs antigen level in HepG2.2.15 culture supernatant by CLIA; assay type: cell-based, hepatitis B virus; details: day 4 after addition, compared to Entecavir and Tenofovir disoproxil fumarate (FIG. 2)
Method: The HBs antigen level was measured by measuring the culture supernatant on the fourth day after the addition of the agent by chemiluminescent immunoassay (CLIA) using HepG2.2.15, i.e., HBV-producing cells obtained by introducing a gene having a length twice that of the HBV genome into the human liver cancer cell line HepG2.

[1] = Cytotoxicity test (WST-1) in HepG2 NTCP-myc cells; assay type: cell-based; details: human, 7 days culture, read-out: CC50 (50% cytotoxic concentration)
Method: HepG2 NTCP-myc cells were seeded at a concentration of 2×10^4 cells/well. 24 hours later, agents were diluted to have a concentration of 0, 0.49, 0.97, 1.95, 3.90, 7.81, 15.6, 31.3, 62.5, 125, 250, 500, and 1000 nM; and added to the cells. The HepG2 NTCP-myc cells were cultured for 7 days. After the culture, 10 μl of Premix WST-1 Cell Proliferation Assay System (TaKaRa) was added, and the cells were cultured at 37° C. for 2 hours. Thereafter, absorbance was determined at 450 nm using a microplate reader.
The CC50 (50% cytotoxic concentration) was calculated from a graph showing the relationship between the concentration of the compound and cytotoxicity.

Row | Compound | EC50 (HBV) [µM] | SI (CC50/EC50) (HBV; CC50 (HepG2 NTCP-myc) divided by EC50 (HepG2.2.15)) | HBs antigen level (relative amount of extracellular HBs antigen) (HBs antigen) | CC50 at 7 days [1] [µM]
1 | OC[C@H]1O[C@@H](n2cnc3c(Cl)nc(Cl)nc32)[C@@H](F)[C@@H]1O [Comparative Example 1, 2,6-dichloro-9-((2R,3S,4R,5R)-3-fluoro-4-hydroxy-5-(hydroxymethyl)tetrahydrofuran-2-yl)-9H-purine, reference compound] | > 10 | – | – | –
2 | Nc1nc(F)nc2c1ncn2[C@@H]1O[C@H](CO)C(O)C1F (stereo partly drawn) [Example 1, 2′-deoxy-2′-fluoro-β-2-fluoro-D-adenosine] | 0.00158 | 213411 | remarkably reduced | 337

Reference: patent US20220008450A1, “ANTI-HEPATITIS B VIRUS AGENT” (DAIKIN INDUSTRIES, LTD., priority 2018, published 2022)
